Measured values taken from paper PMC12430443, “Discovery of Novel Benzamide-Based Sigma-1 Receptor Agonists with Enhanced Selectivity and Safety” (Molecules, 2025).

How the values were obtained:
serotonin 5-HT3 receptor = serotonin 5-HT3 receptor (Homo sapiens, UniProt P46098); assay: Off-target panel, aequorin functional assay; type: cell-based; conditions: 10 µM, duplicate; % inhibition of reference agonist activity
Experimental: (§1) Among the synthesized compounds, four derivatives were selected based on their affinity and selectivity profiles. […] The remaining compounds (2, 3, 6, and 7) were assessed for their agonist and antagonist activities across a panel of 58 receptors relevant to CNS disorders, including serotonin, adenosine, adrenergic, cannabinoid, dopamine, histamine, and muscarinic receptors. These assays were conducted at a concentration of 10 µM, in duplicate, utilizing aequorin [19], cAMP HTRF™ [20], and GTPγS binding assays, as detailed in Table 2. […] Specifically, compound 6 antagonized four receptors (5-HT2A, 5-HT2C, α1a, H1), while compound 7 was active against five receptors (5-HT2A, 5-HT3, α1a, H1, M1).
(§2) Rapidly, the tests were performed by Euroscreen (https://euroscreenfast.com/) with recombinant human G-coupled receptor-expressing cell lines using aequorin functional assays for serotonin 5-HT2A, 5-HT2B, 5-HT2C, 5-HT3, and 5-HT5A, adrenergic α1a and α1b, angiotensin AT1, cholesistokinin CCFK1, endothelin ETA, histamine H1, muscarinic M1 and M3, neurokinin NK1 and NK2, vasopressin V1a, and vasoactive intestinal peptide VPAC1 receptor analysis. Then, cAMP HTRF^TM assays were used to analyze serotonin 5-HT1A, 5-HT4E, 5-HT6, and 5-HT7, adenosine A1, A2A, and A3, adrenergic β1 and β2, cannabinoid CB1, dopamine D1, histamine H2, and neuropeptide Y NPY receptors. GTPγS^35 assays were used to analyze serotonin 5-HT1B, adrenergic α2a and α2b, dopamine D2, muscarinic M2 and M4, opioid δ, κ and µ, and somatostatine SST4 receptors.
(§3) Agonist and antagonist activities of the test compound are expressed as the percentage of the activity of the reference agonist at its EC100 concentration or the percentage of inhibition of the reference agonist activity at its EC80 concentration, respectively.
(§4) For the aequorin assays, different cell lines co-expressing the receptors were grown in specific culture media and incubated for 4 h with coelenterazine h. For agonist testing, cell suspensions were mixed with test or reference agonists in a 96-well plate. For antagonist testing, the reference agonist at its EC80 (final concentration) was injected to the mix the containing cells and the tested compound. The resulting emission of light was recorded using the Hamamatsu Functional Drug Screening System 6000 [19].

adrenergic α1a receptor = adrenergic α1a receptor (Homo sapiens, UniProt P35348); assay: Off-target panel, aequorin functional assay; type: cell-based; conditions: 10 µM, duplicate; % inhibition of reference agonist activity
Experimental: as §1, §2, §3, §4

[1] = target: serotonin 5-HT2C receptor (Homo sapiens, UniProt P28335); assay: Off-target panel, aequorin functional assay; type: cell-based; conditions: 10 µM, duplicate; % inhibition of reference agonist activity
Experimental: as §1, §2, §3, §4

adrenergic α1b receptor = adrenergic α1b receptor (Homo sapiens, UniProt P35368); assay: Off-target panel, aequorin functional assay; type: cell-based; conditions: 10 µM, duplicate; % inhibition of reference agonist activity
Experimental: as §1, §2, §3, §4

S1R = target: T1, S1R (Homo sapiens, UniProt Q99720); assay: S1R competitive radioligand binding, [3H](+)-pentazocine, Jurkat cell membranes; conditions: for IC50: [3H]-(+)-pentazocine displacement, n = 2; for IC50 / Ki: Jurkat cell membranes; for Ki (S2R)/ Ki (S1R): selectivity ratio S2R/S1R; for Ki: [3H](+)-pentazocine, mean of 2–3 independent experiments
T1 construct: For the S1R assay, Jurkat cell membranes (10–20 μg protein/tube) were incubated at 37 °C for 2 h; host or cells: Jurkat cell membranes
Excerpt: (§5) S1R and S2R affinities were classically evaluated through competitive binding assays using radioligands, following the protocol described by Ganapathy et al.. The selective radioligand [^3H] (+)-pentazocine was employed as the classic prototypical ligand, selectively binding to the orthosteric S1R-binding sites. […] Jurkat cell membranes served as the receptor source in both assays. The equilibrium dissociation constants (Ki) for S1R and S2R were derived from the IC50 values of each compound, and selectivity ratios (S2R/S1R) were subsequently calculated (Table 1, Figures S2 and S3).
(§6) Binding assays were performed by Eurofins Cerep (Poitiers, France) according to the protocol of Ganapathy. […] For the S2R assay, Jurkat cell membranes (10–20 μg protein/tube) were incubated at room temperature for 1 h in the same buffer with [^3H]-DTG (25 nM) in the presence of (+)-pentazocine (1 μM) to saturate S1R, along with a range of test compound concentrations. Bound radioactivity was quantified by liquid scintillation counting. Nonspecific binding was determined under identical conditions in the presence of 10 μM unlabeled haloperidol. The IC50 values (concentration causing a half-maximal inhibition of control-specific binding) and Hill coefficients (nH) were determined by non-linear regression analysis of the competition curves generated with mean replicate values using Hill equation curve-fitting. This analysis was performed using software developed at Cerep (Hill software) and validated by comparison with data generated by the commercial software SigmaPlot ®4.0 for Windows® (©1997 by SPSS Inc.). Inhibition constants (Ki) were calculated from IC50 values using the method of Cheng and Prusoff.

S1R-BiP complex = target: T2, S1R-BiP complex (Cricetulus griseus, UniProt A0A3L7I3A5); assay: S1R-BiP complex dissociation, co-immunoprecipitation and BiP ELISA in CHO cells; type: cell-based; conditions: for S1R-BiP complex levels: 10 µM
T2 construct: host or cells: CHO cells
Experimental: The interaction between S1R and BiP provides a reliable assay to identify S1R ligands by monitoring the dynamics of the S1R-BiP complex. In this assay, the known S1R agonist PRE-084 and antagonist NE-100 were used as controls (Figure 3).
The ability of the compounds to promote dissociation of the S1R–BiP complex was assessed by Amylgen (Montferrier-sur-Lez, France) as described in [22, 23]. CHO cells were treated with the test compounds for 30 min at 37 °C, followed by crosslinking with dithiobis(succinimidyl propionate) (DSP; Thermo Scientific, Waltham, MA, USA). Cells were lysed after 15 min on ice, and the lysates were centrifuged. Supernatants were incubated overnight at 4 °C with an anti-S1R antibody (Abcam, Cambridge, UK), and then with Protein A-Sepharose (Invitrogen). After the first centrifugation, pellets were resuspended in radioimmunoprecipitation assay (RIPA) buffer, centrifuged again, and resuspended in 2× sample buffer/bMCE buffer. Following a third centrifugation, the supernatants were analyzed for BiP immunoreactivity using an ELISA kit (SEC343Mu, USCNK Life Sciences, Wuhan, China).
Figure 3 In vitro evaluation of agonist activity of compounds 2, 3, and 6: The effects of compounds 2, 3, and 6 at 1 and 10 µM on the S1R-BiP association after 30 min of incubation were analyzed by co-immunoprecipitation using an anti-S1R antibody (red). BiP levels were quantified by ELISA. PRE-084 (white) and NE-100 (black) served as the reference agonist and antagonist, respectively (10 µM). Agonist activity was confirmed by its blockade with NE-100 (black hatching). […] Data represent the mean ± SEM from n = 6 per condition. Statistical significance was assessed using Dunnett’s test: *** p < 0.0001, * p < 0.05 vs. untreated control; ### p < 0.0001, # p < 0.05 for NE-100 blockade.

S2R = target: T3, S2R (Homo sapiens, UniProt Q5BJF2); assay: S2R competitive radioligand binding, [3H]-DTG with excess (+)-pentazocine, Jurkat cell membranes; conditions: for IC50: [3H]-DTG displacement with excess (+)-pentazocine, n = 2; for Ki: [3H]-DTG with (+)-pentazocine, mean of 2–3 independent experiments
T3 construct: For the S2R assay, Jurkat cell membranes (10–20 μg protein/tube) were incubated at room temperature for 1 h; host or cells: Jurkat cell membranes
Excerpt: as §5, §6

[2] = Cytotoxicity, MTT/MTS assay; type: cell-based, human; conditions: human, SH-SY5Y neuroblastoma cells; percentage of cell death after 24 h treatment at 100 µM (duplicate); read-out: SY5Y % Cytotox
Experimental: (§7) To assess potential cytotoxicity in CNS-relevant cells, human neuroblastoma (SH-SY5Y) cells were exposed to compounds 2–7 at concentrations up to 100 μM. Cell viability was measured using the MTT assay.
(§8) Cytotoxicity was assessed in human SH-SY5Y neuroblastoma cells cultured in Dulbecco’s Modified Eagle Medium (DMEM, Gibco, Thermo Fisher Scientific Inc., Waltham, MA, USA) supplemented with 2 mM L-glutamine, 100 μg/mL streptomycin, 100 IU/mL penicillin, 1 mM non-essential amino acids (all from Invitrogen, Thermo Fisher Scientific Inc., Waltham, MA, USA), and 10% (v/v) heat-inactivated fetal bovine serum (Sigma-Aldrich, Burlington, MA, USA). Cells were maintained at 37 °C in a humidified 5% CO2 atmosphere and serum-starved for 24 h to synchronize cultures before treatment with the test compounds at final concentrations of 100, 50, 10, 5, 1, 0.5, 0.1, or 0.05 μM (all in <0.1% DMSO). […] Absorbance was measured at 490 nm, and the results were expressed as a percentage relative to untreated control cells (set at 100%).

[3] = tested on: SH-SY5Y neuroblastoma cells; assay: Cytotoxicity, MTT/MTS assay; type: cell-based, human; conditions: for IC50 (SY5Y)/ Ki (S1R): selectivity index, IC50 was considered > 100 µM
Experimental: as §7, §8

CXCR1 = CXCR1 (Homo sapiens, UniProt P25024); assay: Off-target panel of recombinant human receptors; type: cell-based; conditions: 10 µM, duplicate; % inhibition of reference agonist activity
Experimental: as §1, §3

D4.4 = D4.4 (Homo sapiens, UniProt P21917); assay: Off-target panel of recombinant human receptors; type: cell-based; conditions: 10 µM, duplicate; % inhibition of reference agonist activity
Experimental: as §1, §3

muscarinic M1 receptor = muscarinic M1 receptor (Homo sapiens, UniProt P11229); design: method as in PMID 11897056; conditions: 10 µM; cited from earlier work
CYP2C19 = target: T4, CYP2C19 (Homo sapiens, UniProt P33261); design: method as in PMID 36233193; conditions: at 10 µM; cited from earlier work
T4 construct: tissue Eurofins Cerep (assay provider); host or cells: human liver microsomes

histamine H1 receptor = histamine H1 receptor (Homo sapiens, UniProt P35367); design: method as in PMID 11897056; conditions: 10 µM; cited from earlier work
CYP3A = tested on: CYP3A; design: method as in PMID 36233193; conditions: at 10 µM; cited from earlier work
[4] = design: method as in PMID 36233193; conditions: 10 µM; cited from earlier work
[5] = design: method as in PMID 36233193; conditions: cited from earlier work
MRP2 = MRP2 (Homo sapiens, UniProt Q92887); design: method as in PMID 36233193; conditions: at 10 µM; ABC family; cited from earlier work
CYP1A = tested on: CYP1A; design: method as in PMID 36233193; conditions: at 10 µM; cited from earlier work
hERG channel = target: T5, hERG channel (Homo sapiens, UniProt Q12809); design: method as in PMID 36233193; conditions: ratio; cited from earlier work
T5 construct: host or cells: CHO-K1

[6] = design: method as in PMID 36233193; conditions: 10 µM; cited from earlier work; remark: listed apart in the source
Caco-2 cell line = tested on: Caco-2 cell line; design: method as in PMID 36233193; conditions: 10 µM, cited from earlier work

T1 sequence (Q99720 whole entry): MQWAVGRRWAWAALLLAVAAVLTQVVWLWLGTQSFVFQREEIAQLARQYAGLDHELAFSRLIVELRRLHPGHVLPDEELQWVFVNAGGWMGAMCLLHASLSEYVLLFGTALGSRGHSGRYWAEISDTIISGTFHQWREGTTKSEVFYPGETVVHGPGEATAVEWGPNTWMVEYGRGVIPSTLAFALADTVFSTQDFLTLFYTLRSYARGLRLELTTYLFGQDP
T3 sequence (Q5BJF2 whole entry): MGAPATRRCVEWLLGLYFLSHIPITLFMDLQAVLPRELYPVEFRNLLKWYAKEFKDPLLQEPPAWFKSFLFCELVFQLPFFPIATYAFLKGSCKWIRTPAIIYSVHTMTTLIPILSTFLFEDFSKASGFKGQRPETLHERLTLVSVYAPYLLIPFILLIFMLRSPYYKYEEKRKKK
T2 sequence (A0A3L7I3A5 1-223, one chain of several): as the sequence (Q99720 whole entry) above, with A4S, V5L, A12I, L15F, V25A, S34N, R39Q counted along it
MRP2, sequence (Q92887 whole entry): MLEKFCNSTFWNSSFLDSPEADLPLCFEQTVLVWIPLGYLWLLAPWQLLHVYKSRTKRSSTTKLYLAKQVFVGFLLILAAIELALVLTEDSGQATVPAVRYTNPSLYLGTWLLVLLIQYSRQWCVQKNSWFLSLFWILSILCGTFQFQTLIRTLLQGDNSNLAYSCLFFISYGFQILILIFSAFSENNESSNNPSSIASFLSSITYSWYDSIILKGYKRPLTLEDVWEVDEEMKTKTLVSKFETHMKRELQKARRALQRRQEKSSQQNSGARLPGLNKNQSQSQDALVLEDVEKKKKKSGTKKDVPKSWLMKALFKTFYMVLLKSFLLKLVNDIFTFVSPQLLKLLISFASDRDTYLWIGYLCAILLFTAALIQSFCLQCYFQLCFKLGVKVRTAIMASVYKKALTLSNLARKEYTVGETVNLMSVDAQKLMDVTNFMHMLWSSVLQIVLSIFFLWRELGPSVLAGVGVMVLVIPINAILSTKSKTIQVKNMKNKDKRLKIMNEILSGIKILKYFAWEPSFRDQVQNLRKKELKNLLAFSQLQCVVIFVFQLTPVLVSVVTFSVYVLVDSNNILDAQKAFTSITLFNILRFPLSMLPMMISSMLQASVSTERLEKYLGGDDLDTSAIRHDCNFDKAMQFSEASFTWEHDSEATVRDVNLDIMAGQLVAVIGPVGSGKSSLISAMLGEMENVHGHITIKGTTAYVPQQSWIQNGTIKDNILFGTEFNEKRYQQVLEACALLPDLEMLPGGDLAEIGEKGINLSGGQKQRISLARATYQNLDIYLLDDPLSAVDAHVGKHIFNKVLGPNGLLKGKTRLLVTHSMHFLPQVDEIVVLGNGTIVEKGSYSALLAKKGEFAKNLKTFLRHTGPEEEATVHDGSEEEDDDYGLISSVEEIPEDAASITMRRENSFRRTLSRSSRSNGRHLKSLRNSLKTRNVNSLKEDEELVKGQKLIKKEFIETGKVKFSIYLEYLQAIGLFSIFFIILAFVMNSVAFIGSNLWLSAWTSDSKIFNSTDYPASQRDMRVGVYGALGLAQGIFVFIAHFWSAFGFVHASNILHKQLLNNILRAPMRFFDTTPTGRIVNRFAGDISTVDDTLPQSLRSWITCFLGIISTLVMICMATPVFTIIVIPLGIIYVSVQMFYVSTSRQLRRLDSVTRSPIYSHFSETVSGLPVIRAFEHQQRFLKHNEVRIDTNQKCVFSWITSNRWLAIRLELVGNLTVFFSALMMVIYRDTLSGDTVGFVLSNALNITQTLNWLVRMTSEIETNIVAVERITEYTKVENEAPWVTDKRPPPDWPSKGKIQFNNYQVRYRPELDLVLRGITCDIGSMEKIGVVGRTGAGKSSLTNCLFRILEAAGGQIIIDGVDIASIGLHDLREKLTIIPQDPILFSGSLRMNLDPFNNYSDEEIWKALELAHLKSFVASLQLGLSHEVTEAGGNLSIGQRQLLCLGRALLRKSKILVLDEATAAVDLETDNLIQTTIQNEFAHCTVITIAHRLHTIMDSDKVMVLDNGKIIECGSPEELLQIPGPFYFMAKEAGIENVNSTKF
CXCR1, sequence (P25024 whole entry): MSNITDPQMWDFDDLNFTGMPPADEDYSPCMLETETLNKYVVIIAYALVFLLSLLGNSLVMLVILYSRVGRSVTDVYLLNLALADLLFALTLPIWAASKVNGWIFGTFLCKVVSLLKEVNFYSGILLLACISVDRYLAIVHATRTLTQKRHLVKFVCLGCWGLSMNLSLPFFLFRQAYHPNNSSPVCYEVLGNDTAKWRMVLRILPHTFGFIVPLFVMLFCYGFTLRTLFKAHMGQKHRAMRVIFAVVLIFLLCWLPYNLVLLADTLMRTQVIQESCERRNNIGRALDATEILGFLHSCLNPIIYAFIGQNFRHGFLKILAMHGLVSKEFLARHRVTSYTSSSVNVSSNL
T4 sequence (P33261 whole entry): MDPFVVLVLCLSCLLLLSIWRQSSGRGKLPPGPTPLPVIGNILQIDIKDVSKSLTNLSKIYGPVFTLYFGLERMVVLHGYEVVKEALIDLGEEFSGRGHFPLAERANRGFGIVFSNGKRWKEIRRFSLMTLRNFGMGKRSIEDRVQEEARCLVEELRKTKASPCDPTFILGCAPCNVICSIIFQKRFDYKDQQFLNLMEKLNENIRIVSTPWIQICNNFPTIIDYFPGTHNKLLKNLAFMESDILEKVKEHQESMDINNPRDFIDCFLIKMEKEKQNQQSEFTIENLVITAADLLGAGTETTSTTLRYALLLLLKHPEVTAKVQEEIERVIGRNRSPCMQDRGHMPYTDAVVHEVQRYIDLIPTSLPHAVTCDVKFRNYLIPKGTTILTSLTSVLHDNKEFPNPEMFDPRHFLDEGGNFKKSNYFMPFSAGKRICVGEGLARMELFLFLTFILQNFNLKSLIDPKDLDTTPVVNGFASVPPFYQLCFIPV
muscarinic M1 receptor, sequence (P11229 whole entry): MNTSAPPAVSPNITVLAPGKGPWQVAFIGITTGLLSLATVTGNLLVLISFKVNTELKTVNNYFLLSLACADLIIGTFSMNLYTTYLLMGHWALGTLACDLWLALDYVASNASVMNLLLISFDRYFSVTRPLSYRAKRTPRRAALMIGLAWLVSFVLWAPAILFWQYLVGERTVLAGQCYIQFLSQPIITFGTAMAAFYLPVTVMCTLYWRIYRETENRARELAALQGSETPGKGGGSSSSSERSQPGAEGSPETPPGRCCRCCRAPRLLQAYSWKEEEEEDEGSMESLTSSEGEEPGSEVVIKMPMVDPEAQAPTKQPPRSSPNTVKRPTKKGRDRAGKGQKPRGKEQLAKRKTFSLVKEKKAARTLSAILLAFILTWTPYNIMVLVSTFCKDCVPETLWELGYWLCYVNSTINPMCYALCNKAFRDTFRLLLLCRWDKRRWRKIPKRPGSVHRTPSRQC
serotonin 5-HT2C receptor, sequence (P28335 33-458): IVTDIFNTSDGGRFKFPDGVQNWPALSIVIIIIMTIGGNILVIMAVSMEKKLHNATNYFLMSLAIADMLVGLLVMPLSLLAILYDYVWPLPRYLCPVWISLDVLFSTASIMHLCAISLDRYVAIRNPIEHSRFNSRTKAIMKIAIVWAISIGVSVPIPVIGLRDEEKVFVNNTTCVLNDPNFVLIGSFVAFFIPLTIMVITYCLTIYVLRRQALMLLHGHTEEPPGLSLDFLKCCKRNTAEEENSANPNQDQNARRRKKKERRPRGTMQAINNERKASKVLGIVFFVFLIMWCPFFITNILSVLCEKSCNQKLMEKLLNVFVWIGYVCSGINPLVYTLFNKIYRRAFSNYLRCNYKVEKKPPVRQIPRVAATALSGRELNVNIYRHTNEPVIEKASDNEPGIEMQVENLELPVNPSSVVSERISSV
histamine H1 receptor, sequence (P35367 whole entry): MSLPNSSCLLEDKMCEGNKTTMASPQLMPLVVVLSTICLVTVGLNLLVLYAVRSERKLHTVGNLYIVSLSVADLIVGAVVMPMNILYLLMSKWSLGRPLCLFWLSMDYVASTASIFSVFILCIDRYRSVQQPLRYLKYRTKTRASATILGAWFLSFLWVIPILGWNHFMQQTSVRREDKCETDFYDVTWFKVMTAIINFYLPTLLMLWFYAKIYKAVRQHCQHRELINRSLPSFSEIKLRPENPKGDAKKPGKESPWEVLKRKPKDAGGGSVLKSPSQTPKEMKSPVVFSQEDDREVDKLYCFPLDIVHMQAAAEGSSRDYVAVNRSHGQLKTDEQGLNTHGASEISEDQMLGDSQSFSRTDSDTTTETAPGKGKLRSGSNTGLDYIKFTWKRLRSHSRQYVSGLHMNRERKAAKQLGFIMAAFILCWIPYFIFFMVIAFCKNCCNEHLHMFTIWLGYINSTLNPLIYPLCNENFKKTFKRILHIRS
adrenergic α1b receptor, sequence (P35368 whole entry): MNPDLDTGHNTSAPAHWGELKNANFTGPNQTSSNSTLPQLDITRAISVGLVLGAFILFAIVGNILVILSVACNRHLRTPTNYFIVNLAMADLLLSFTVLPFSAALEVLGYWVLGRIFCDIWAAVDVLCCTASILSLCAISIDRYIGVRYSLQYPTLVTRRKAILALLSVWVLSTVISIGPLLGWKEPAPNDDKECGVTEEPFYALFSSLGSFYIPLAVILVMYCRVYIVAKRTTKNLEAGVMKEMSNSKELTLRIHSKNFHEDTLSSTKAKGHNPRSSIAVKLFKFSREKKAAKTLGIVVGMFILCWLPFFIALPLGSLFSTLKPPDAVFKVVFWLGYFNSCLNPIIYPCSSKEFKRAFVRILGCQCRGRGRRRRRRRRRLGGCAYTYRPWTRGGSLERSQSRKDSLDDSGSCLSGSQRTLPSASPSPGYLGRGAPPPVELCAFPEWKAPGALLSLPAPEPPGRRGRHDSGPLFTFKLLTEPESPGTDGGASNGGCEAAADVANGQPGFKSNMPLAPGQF

CN(CCC(=O)NCc1ccc(Cl)cc1)Cc1ccccc1 [Compound 3, 3-(Benzylmethylamino)-N-(4-chlorobenzyl)propanamide]
5-HT3 [b] antagonist activity (serotonin 5-HT3 receptor): 72% | α1a [b] antagonist activity (adrenergic α1a receptor): 88% | 5-HT2C [b] antagonist activity [1]: 76% | α1b [b] antagonist activity (adrenergic α1b receptor): 65% | IC50 (S1R): 3.3 nM | Ki (S2R)/ Ki (S1R) (S1R): 241 | Dissociation of the S1R-BiP complex (in words) (S1R-BiP complex; 1 and 10 µM, 30 min incubation, CHO cells, n = 6): significant, dose-dependent dissociation | Dissociation of S1R-BiP complex in the presence of NE-100 (in words) (S1R-BiP complex; co-treatment with NE-100 (10 µM)): completely inhibited | IC50 (S2R): 540 nM | cytotoxicity at 24 h, 100 µM [2]: 1% | IC50 (SY5Y)/ Ki (S1R) [3]: >58,823 | CXCR1 [b] antagonist activity (CXCR1): 54% | D4.4 [b] antagonist activity (D4.4): 84%

3-(Benzylmethylamino)-N-(3-bromobenzyl)propanamide [Compound 4]
Ki (S1R): > 200 nM | Ki (S2R): > 200 nM | SY5Y % Cytotox ([3]; 100 µM): 6%

CCCN(CCC)CCc1ccc(OC)c(OCCc2ccccc2)c1 [NE-100, reference compound]
S1R-BiP complex levels (S1R-BiP complex; 30 min incubation, CHO cells): 90–100 % of the control

CN(CCC(=O)NCc1ccc(Cl)cc1Cl)Cc1ccccc1 [Compound 5, 3-(Benzylmethylamino)-N-(2,4-Dichlorobenzyl)propanamide]
IC50 (S1R): 4.5 nM | Ki (S2R)/ Ki (S1R) (S1R): 52 | IC50 (S2R): 160 nM | cytotoxicity at 24 h, 100 µM [2]: 37% | IC50 (SY5Y)/ Ki (S1R) [3]: >43,478

CN(CCCNC(=O)c1ccc(Cl)cc1)Cc1ccccc1 [Compound 1]
M1 antagonist activity (in words) (muscarinic M1 receptor): antagonist activity | CYP inhibition 2C19 (CYP2C19): 36.2% | H1 activity (in words) (histamine H1 receptor): no activity | CYP inhibition 3A (CYP3A): 36.9% | Ki (S1R): 3.2 nM | IC50 (S1R): 6.3 nM | Human liver microsome half-life t1/2 [4]: >1 h | IC50 (S2R): 255 nM | Ki (S2R): 190 nM | cytotoxicity at 24 h, 100 µM [2]: 28% | IC50 (SY5Y)/ Ki (S1R) [3]: >31,250 | Mouse plasma t1/2 [5]: 25.9 h | Drug transport inhibition MRP2 (MRP2): −18.6% | CYP inhibition 1A (CYP1A): 2.1% | IC50 (hERG)/Ki (σ1) (hERG channel): 312 | Plasma protein binding [6]: 94% | Permeability A/B pH7.4/7.4 (Caco-2 cell line; Caco-2): 29.1 ×10^−6 cm/s | Permeability B/A pH7.4/7.4 (Caco-2 cell line; Caco-2): 66.1 ×10^−6 cm/s | e-ratio (Caco-2 cell line; efflux ratio Papp(B→A)/Papp(A→B)): 2.3

O=C(OCCN1CCOCC1)C1(c2ccccc2)CCCCC1 [PRE-084, reference compound]
S1R-BiP complex levels (S1R-BiP complex; 30 min incubation, CHO cells): less than 50 % of the control

CN(CCC(=O)NCc1ccc([N+](=O)[O-])cc1)Cc1ccccc1 [Compound 7, 3-(Benzylmethylamino)-N-(4-Nitrobenzyl)propanamide]
Ki (S1R): 110 nM | IC50 (S1R): 220 nM | Ki (S2R)/ Ki (S1R) (S1R): 59 | IC50 (S2R): 8600 nM | cytotoxicity at 24 h, 100 µM [2]: 9% | IC50 (SY5Y)/ Ki (S1R) [3]: >909
